Reference: patent US20240101572A1, “DIHYDROOXADIAZINONE COMPOUND AND PHARMACEUTICAL USE THEREOF” (Japan Tobacco Inc., priority 2022, published 2024)
Where two headings read alike, the source gives them in different places.

Experiments:
[1] = target: full-length human PLD1 (Homo sapiens (Human), UniProt Q13393); assay: Evaluation of human PLD1 enzyme inhibitory activity (Amplex Red / choline oxidase fluorescence); format: biochemical
In short: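 Fluorescence read-out couples choline to Amplex Red via choline oxidase and peroxidase after a 60 min room-temperature reaction. Enzyme: FLAG-tagged full-length human PLD1 from Expi293F cells, anti-FLAG purified; substrate diheptanoyl phosphatidylcholine; HEPES pH 7.5 assay buffer with 0.01% NP-40, 0.1% BSA, 5% DMSO final.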

[2] = target: full-length human PLD2 (Homo sapiens (Human), UniProt O14939); assay: Evaluation of human PLD2 enzyme inhibitory activity (Amplex Red / choline oxidase fluorescence); format: biochemical
In short: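 Released choline was read by Amplex Red fluorescence coupled to choline oxidase and HRP after a 60 min room-temperature reaction. Substrate was diheptanoyl phosphatidylcholine, added as a 6 mmol/L solution, and enzyme was FLAG-tagged full-length human PLD2 from Expi293F, added as a 6 nmol/L solution. Buffer was 50 mM HEPES pH 7.5 with 5% final DMSO.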

[3] = column 1 of continuation tables 2-12 to 2-14, read-out: human PLD1 enzyme inhibitory activity IC50
[4] = column 2 of continuation tables 2-12 to 2-14, read-out: human PLD2 enzyme inhibitory activity IC50
[5] = full-length human PLD1 enzyme, read-out: PLD1 IC50
[6] = full-length human PLD2 enzyme, read-out: PLD2 IC50

Chain of full-length human PLD1 (Q13393 other isoform, or with tags, fused parts or gaps): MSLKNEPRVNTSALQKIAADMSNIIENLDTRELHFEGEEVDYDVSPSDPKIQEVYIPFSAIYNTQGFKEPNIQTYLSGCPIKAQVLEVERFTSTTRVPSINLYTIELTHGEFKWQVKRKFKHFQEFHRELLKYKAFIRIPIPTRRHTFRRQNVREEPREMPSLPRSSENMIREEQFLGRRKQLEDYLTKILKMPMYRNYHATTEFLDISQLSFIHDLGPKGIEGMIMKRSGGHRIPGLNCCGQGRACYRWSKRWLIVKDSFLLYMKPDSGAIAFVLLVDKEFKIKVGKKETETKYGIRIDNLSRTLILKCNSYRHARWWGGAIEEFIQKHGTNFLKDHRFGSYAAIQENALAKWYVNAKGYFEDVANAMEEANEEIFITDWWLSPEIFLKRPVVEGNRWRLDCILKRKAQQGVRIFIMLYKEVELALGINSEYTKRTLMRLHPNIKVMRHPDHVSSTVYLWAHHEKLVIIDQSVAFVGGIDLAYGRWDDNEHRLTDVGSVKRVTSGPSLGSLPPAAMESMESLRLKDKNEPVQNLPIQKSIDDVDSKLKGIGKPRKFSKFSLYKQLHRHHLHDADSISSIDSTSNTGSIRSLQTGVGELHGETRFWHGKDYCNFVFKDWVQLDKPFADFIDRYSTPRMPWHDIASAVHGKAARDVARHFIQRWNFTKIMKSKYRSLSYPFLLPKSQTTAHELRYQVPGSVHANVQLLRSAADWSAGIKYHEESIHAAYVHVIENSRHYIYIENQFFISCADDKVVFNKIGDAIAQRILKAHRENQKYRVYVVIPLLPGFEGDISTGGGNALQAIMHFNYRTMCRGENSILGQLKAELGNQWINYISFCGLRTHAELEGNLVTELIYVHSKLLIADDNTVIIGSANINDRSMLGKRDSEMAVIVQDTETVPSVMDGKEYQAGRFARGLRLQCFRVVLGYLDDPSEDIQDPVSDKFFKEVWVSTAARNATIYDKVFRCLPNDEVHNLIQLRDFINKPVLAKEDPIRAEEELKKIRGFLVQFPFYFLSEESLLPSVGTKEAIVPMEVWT
Chain of full-length human PLD2 (O14939 whole entry): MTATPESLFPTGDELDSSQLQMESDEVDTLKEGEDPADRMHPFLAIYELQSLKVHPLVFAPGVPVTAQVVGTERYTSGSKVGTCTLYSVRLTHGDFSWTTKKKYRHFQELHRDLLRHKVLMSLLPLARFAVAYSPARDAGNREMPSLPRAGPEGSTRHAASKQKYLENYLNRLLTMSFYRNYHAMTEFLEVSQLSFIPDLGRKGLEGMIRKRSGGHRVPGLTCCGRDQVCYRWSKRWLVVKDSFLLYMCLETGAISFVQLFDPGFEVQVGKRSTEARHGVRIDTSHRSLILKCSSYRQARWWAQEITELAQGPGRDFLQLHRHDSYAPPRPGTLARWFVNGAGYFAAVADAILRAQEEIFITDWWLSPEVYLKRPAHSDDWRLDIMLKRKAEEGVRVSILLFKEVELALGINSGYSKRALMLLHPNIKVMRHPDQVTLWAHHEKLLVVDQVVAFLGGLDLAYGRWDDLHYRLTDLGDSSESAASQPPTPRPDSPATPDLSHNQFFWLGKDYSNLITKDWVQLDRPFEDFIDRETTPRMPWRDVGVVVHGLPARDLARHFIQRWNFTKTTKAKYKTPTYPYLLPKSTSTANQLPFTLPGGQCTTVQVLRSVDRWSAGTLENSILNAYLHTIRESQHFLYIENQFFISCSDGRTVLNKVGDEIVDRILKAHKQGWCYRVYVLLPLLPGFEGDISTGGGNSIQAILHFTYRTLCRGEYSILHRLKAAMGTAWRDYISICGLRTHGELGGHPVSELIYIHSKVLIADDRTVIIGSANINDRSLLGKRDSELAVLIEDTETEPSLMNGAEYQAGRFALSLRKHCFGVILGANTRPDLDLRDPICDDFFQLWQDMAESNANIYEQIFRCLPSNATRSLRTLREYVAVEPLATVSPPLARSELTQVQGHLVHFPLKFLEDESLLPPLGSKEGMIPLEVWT

Structure (SMILES) | IC50 [1, 3] [nM] | IC50 [2, 4] [nM] | IC50 [1, 5] [nM] | IC50 [2, 6] [nM]
[2H]C([2H])([2H])NC(=O)C(=O)N[C@@H](C)C[C@]1(OC)CC[C@@]2(CC1)OC(=O)NN=C2c1cccc(C(F)(F)F)c1Br [Example 2-129] | 25 | < 10 |  | 
CNC(=O)C(=O)N[C@@H](C)C[C@H]1CC[C@]2(CC1)OC(=O)NN=C2c1cnc(C(C)=O)cc1C [Example 193] |  |  | 55 | 46
CNC(=O)C(=O)N[C@@H](C)C[C@H]1CC[C@]2(CC1)OC(=O)NN=C2c1cc(N2CCOCC2)ccc1C [Example 256] |  |  | 27 | < 10
C[C@@H](C[C@H]1CC[C@]2(CC1)OC(=O)NN=C2c1ccc(F)cc1Br)NC(=O)[C@@H](C)O [Example 28] |  |  | 341 | 303
CNC(=O)C(=O)N[C@@H](C)C[C@H]1CC[C@]2(CC1)OC(=O)NN=C2c1cccnc1C [Example 102] |  |  | 288 | 666
CNC(=O)C(=O)N[C@@H](C)C[C@H]1CC[C@]2(CC1)OC(=O)NN=C2c1cnc(O)cc1C [Example 162] |  |  | 322 | 536
COc1ccc(C2=NNC(=O)O[C@]23CC[C@@H](C[C@H](C)NC(=O)c2cc(Cl)no2)CC3)c(Br)c1 [Example 59] |  |  | < 10 | < 10
Cc1cc(C(=O)N[C@@H](C)C[C@H]2CC[C@]3(CC2)OC(=O)NN=C3c2cnc(N3C[C@H]4C[C@@H]3CO4)cc2C)[nH]n1 [Example 249] |  |  | 25 | < 10
C[C@@H](C[C@H]1CC[C@]2(CC1)OC(=O)NN=C2c1ccc(S(C)(=O)=O)cc1)NC(=O)c1cc2cc(F)ccc2[nH]1 [Example 8] |  |  | 30 | 10
C[C@@H](CN1CCC2(CC1)OC(=O)NN=C2c1cc(C#N)ccc1Br)NC(=O)/C=C/C(=O)ON1C(=O)CCC1=O [Example 2-042] |  |  | 3020 | 383
C[C@@H](C[C@H]1CC[C@]2(CC1)OC(=O)NN=C2c1ccc(F)cc1)NC(=O)c1cc2ccccc2o1 [Example 7] |  |  | 30 | 44
CNC(=O)C(=O)N[C@@H](C)C[C@H]1CC[C@]2(CC1)OC(=O)NN=C2c1ccc(F)cc1C [Example 55] |  |  | 15 | < 10
CNC(=O)C(=O)N[C@@H](C)CN1CCC2(CC1)OC(=O)NN=C2c1ccc(F)cc1Br [Example 179, (S)—N^1-(1-(5-(2-bromo-4-fluorophenyl)-2-oxo-1-oxa-3,4,9-triazaspiro[5.5]undec-4-en-9-yl)propan-2-yl)-N^2-methyloxamide] |  |  | 25 | < 10
CNC(=O)C(=O)N[C@@H](C)C[C@H]1CC[C@]2(CC1)OC(=O)NN=C2c1cc(C#N)ccc1C [Example 287] |  |  | 13 | < 10
C[C@@H](C[C@H]1CC[C@]2(CC1)OC(=O)NN=C2c1ccc(F)cc1Br)NC(=O)c1cc(C(F)(F)F)n[nH]1 [Example 72] |  |  | 34 | 24
C[C@@H](C[C@H]1CC[C@]2(CC1)OC(=O)NN=C2c1ccc(F)cc1Br)NC(=O)c1cc2cc(F)ccc2[nH]1 [Example 13] |  |  | 36 | < 10
CNC(=O)C(=O)N[C@@H](C)C[C@H]1CC[C@]2(CC1)OC(=O)NN=C2c1cnc(N2C[C@H]3C[C@@H]2CO3)cc1C [Example 267] |  |  | 26 | < 10
CNC(=O)C(=O)N[C@@H](C)C[C@H]1CC[C@]2(CC1)OC(=O)NN=C2c1cccnc1 [Example 17] |  |  | 816 | 1040
CNC(=O)C(=O)N[C@@H](C)C[C@H]1CC[C@]2(CC1)OC(=O)NN=C2c1cc(C(F)(F)F)ncc1Br [Example 2-075] |  |  | 16 | < 10
COc1cc(C)c(C2=NNC(=O)O[C@]23CC[C@@H](C[C@H](C)NC(=O)C(=O)NC2CC2)CC3)cn1 [Example 220] |  |  | 42 | 33
CNC(=O)C(=O)N[C@@H](C)CN1CCC2(CO1)OC(=O)NN=C2c1cc(C#N)ccc1Br (some centres unmarked) [Example 2-025] |  |  | 219 | 205
[2H]C([2H])([2H])NC(=O)C(=O)N[C@@H](C)C[C@H]1CC[C@]2(CC1)OC(=O)NN=C2c1cc(C#N)ccc1Br [Example 2-073] |  |  | 14 | 2
Cc1cc(C(=O)N[C@@H](C)C[C@H]2CC[C@]3(CC2)OC(=O)NN=C3c2cnc(C3CC3)cc2Cl)[nH]n1 [Example 266] |  |  | 15 | < 10
CNC(=O)C(=O)N[C@@H](C)C[C@]1(O)CC[C@]2(CC1)OC(=O)NN=C2c1ccc(F)cc1Br [Example 319] |  |  | 2090 | 744
Cc1cc(Br)ccc1C1=NNC(=O)O[C@]12CC[C@@H](C[C@H](C)NC(=O)C(=O)NC1CC1)CC2 [Example 209] |  |  | 18 | 18
CNC(=O)C(=O)N[C@@H](C)C[C@H]1CC[C@]2(CC1)OC(=O)NN=C2c1cc(C)ccc1C [Example 126] |  |  | 13 | < 10

Structure (SMILES) | IC50 [1, 3] [nM] | IC50 [2, 4] [nM] | IC50 [1, 5] [nM] | IC50 [2, 6] [nM]
C[C@@H](CN1CCC2(CC1)OC(=O)NN=C2c1cc(C#N)ccc1Br)NC(=O)C1COCCO1 (mixture of isomers) [Example 2-049] |  |  | 1740 | 1440
CNC1(C(=O)N[C@@H](C)C[C@H]2CC[C@]3(CC2)OC(=O)NN=C3c2ccc(F)cc2Br)COC1 [Example 124] |  |  | 638 | 2740
CNC(=O)C(=O)N[C@@H](C)C[C@H]1CC[C@]2(CC1)OC(=O)NN=C2c1cnc(OC)cc1C [Example 154] |  |  | 27 | 14
COc1cc(C)c(C2=NNC(=O)O[C@]23CC[C@@H](C[C@H](C)NC(=O)CC#N)CC3)cn1 [Example 263] |  |  | 2780 | 4500
C[C@@H](CN1CCC2(CC1)OC(=O)NN=C2c1ccc(F)cc1Br)NC(=O)c1cnn(C(F)(F)F)c1 [Example 255] |  |  | 32 | 14
CNC(=O)C(=O)N[C@@H](C)C[C@H]1CC[C@]2(CC1)OC(=O)NN=C2c1ccc(C#N)cc1Cl [Example 175] |  |  | 21 | 15
[2H]C([2H])([2H])NC(=O)C(=O)N[C@@H](C)C[C@]1(C#N)CC[C@@]2(CC1)OC(=O)NN=C2c1cccc(C(F)(F)F)c1Br [Example 2-118] | 19 | < 10 |  | 
C[C@@H](CN1CCC2(CC1)OC(=O)N(C(=O)NC1CC1)N=C2c1ccc(F)cc1Br)NC(=O)NC1CC1 [Example 190] |  |  | 642 | 776
CNC(=O)C(=O)N[C@@H](C)CN1CCC2(CC1)OC(=O)NN=C2c1ccc(C#N)cc1Br [Example 206] |  |  | 36 | 13
CC(=O)C(=O)N[C@@H](C)C[C@H]1CC[C@]2(CC1)OC(=O)NN=C2c1ccc(F)cc1Br [Example 30] |  |  | 123 | 153
CNC(=O)C(=O)N[C@@H](C)CN1CCC2(CC1)OC(=O)NN=C2c1cc(C(=O)OC)ccc1Br [Example 2-033] |  |  | 35 | < 10
C[C@@H](C[C@H]1CC[C@]2(CC1)OC(=O)NN=C2c1ccc(F)cc1Br)NC(=O)C1(O)CC1 [Example 36] |  |  | 221 | 137
C[C@@H](C[C@H]1CC[C@]2(CC1)OC(=O)NN=C2c1ccccc1S(C)(=O)=O)NC(=O)c1cc(Cl)no1 [Example 78] |  |  | 350 | 252
C[C@@H](C[C@H]1CC[C@]2(CC1)OC(=O)NN=C2c1ccc(F)cc1Cl)NC(=O)C(=O)NC1CC1 [Example 70] |  |  | 28 | 20
CNC(=O)C(=O)N[C@@H](C)C[C@H]1CC[C@]2(CC1)OC(=O)NN=C2c1ccc(C)cc1C [Example 145] |  |  | 17 | < 10
CNC(=O)C(=O)N[C@@H](C)C[C@H]1CC[C@]2(CC1)OC(=O)NN=C2c1ccccc1SC(F)(F)F [Example 2-019] |  |  | 12 | < 10
CNC(=O)C(=O)N[C@@H](C)C[C@H]1CC[C@]2(CC1)OC(=O)NN=C2c1ccc(OC)cc1Br [Example 58] |  |  | 14 | < 10
Cc1ncccc1C1=NNC(=O)O[C@]12CC[C@@H](C[C@H](C)NC(=O)c1cc(Cl)no1)CC2 [Example 103] |  |  | 170 | 379
CNC(=O)C(=O)N[C@@H](C)CN1CCC2(CC1)OC(=O)NN=C2c1cc(Br)c(F)cc1Cl [Example 2-015] |  |  | 26 | 12
CNC(=O)C(=O)N[C@@H](C)C[C@H]1CC[C@]2(CC1)OC(=O)NN=C2c1cnc(N2CCOCC2)cc1C [Example 164] |  |  | 38 | < 10
CNC(=O)C(=O)N[C@@H](C)C[C@H]1CC[C@]2(CC1)OC(=O)NN=C2c1cc(C(=O)OC)ccc1Br [Example 2-032] |  |  | 11 | < 10
C[C@@H](C[C@H]1CC[C@]2(CC1)OC(=O)NN=C2c1ccc(F)cc1Br)NC(=O)C(F)Cl (mixture of isomers) [Example 278] |  |  | 246 | 1180
Cc1cc(C(=O)N[C@@H](C)C[C@]2(F)CC[C@@]3(CC2)OC(=O)NN=C3c2cc(C#N)ccc2Br)[nH]n1 [Example 311] |  |  | 15 | < 10
Cc1cc(C(=O)N[C@@H](C)CN2CC[C@]3(C[C@@H]2C)OC(=O)NN=C3c2ccc(C#N)cc2Cl)[nH]n1 [Example 281] |  |  | 169 | 232
C[C@@H](C[C@H]1CC[C@]2(CC1)OC(=O)NN=C2c1ccc(F)cc1C1CC1)NC(=O)c1cc(Cl)no1 [Example 65] |  |  | < 10 | < 10
C[C@@H](C[C@H]1CC[C@]2(CC1)OC(=O)NN=C2c1ccc(F)cc1Cl)NC(=O)c1cc2cc(F)ccc2o1 [Example 61] |  |  | 14 | 11
